Test results reported in US20160113900A1, “INHIBITORS OF MITOCHONDRIAL STAT3 AND USES THEREOF IN MODULATION OF MAST CELL EXOCYTOSIS” (Yissum Research Development Company of the Hebrew …, priority 2014, published 2016).
One block for each molecule: values may come before it.

What was measured:
RBL cells [1] = assay: β-Hexosaminidase release assay (degranulation) in RBL cells; type: cell-based, rat
Procedure: (§1) RBL-2H3 cells were maintained in RPMI 1640 medium as previously described1. Bone marrow was isolated from 5-6 week-old mice, and BMMC were cultured in RPMI medium supplemented with 20 ng/ml interleukin-3 (IL-3) and 20 ng/ml SCF as previously described2, 3. Cells were generally grown for a minimum of 4 weeks and used when >90% of the population expressed FcεRI. BMMC and RBL cells were sensitized first with anti-DNP IgE monoclonal antibody (SPE-7; Sigma-Aldrich Corp.) and then challenged with DNP-BSA (Sigma-Aldrich Corp.). IgE antibody was centrifuged (18,000 g, 5 min) before use to remove aggregates. […] For glycolysis elimination cells were maintained in glucose-free RPMI supplemented with 10% dialyzed fetal calf serum and 5 mM galactose.
(§2) 1×104 RBL or 3×104 BMMC were immunologically activated as described above. After IgE incubation, the cells were washed three times with 5 mL of degranulation buffer (NaCl 130 mM, KCl 5 mM, Glucose 5.6 mM, MgCl2 1 mM, CaCl2 1.2 mM, Hepes pH 7.4 10 mM, BSA 0.1%) and resuspended in 200 μL of the same buffer with DNP-albumin for 30 min. The release of β-hexosaminidase was determined in triplicates in a 96-well plate. Aliquots (20 μL) of supernatants and cell lysates were incubated for 30 minutes with 100 μL of substrate solution (1.3 mg/mL p-nitrophenyl-b-D-2-acetamido-2-deoxyglucopyranozide in 0.1 M citrate [pH 4.51]). The reaction was stopped by the addition of 200 μL of 0.2 M glycine (pH 10.7). The plate OD was read in an enzyme-linked immunosorbent assay (ELISA) reader at a wavelength of 405 nm Percent release values for each experimental condition were calculated3.

caspase3 [2] = assay: Western blot of caspase3 / cleaved caspase3 (apoptosis) in RBL cells; type: cell-based, rat
Procedure: (§3) RBL cells and mitochondrial pellets were lysed by the addition of lysis buffer (50 mM Tris-HCl pH 7.4, 1% Nonidet P-40, 0.25% Na-deoxycholate, 150 mM NaCl, 1 mM EDTA, 1 mM PMSF) supplemented with 15 μl protease inhibitor (Sigma-Aldrich). Cells and mitochondria were vortexed and incubated on ice for 15 min. The lysates were then centrifuged at 14,000 g for 15 min and pellets were discarded. The protein concentration of each sample was determined using Bradford Reagent (Sigma-Aldrich). Proteins were resolved by 10-15% SDS-PAGE under reducing conditions and transferred to polyvinylidene difluoride membranes (Millipore Billerica, Ma). The membranes were incubated in 5% fat-free milk and TBST (10 mM Tris-HCl, pH 7.4, 150 mM NaCl, 0.1% Tween 20) for 1 h and then in 5% BSA and TBST containing various dilutions of primary Abs for 18 h at 4° C. The membranes were washed three times with TBST for 5 mM before and after each incubation with secondary Ab. The proteins were detected with the appropriate secondary Ab (1 h; room temperature) coupled to HRP-conjugated goat anti-rabbit or anti-mouse Ab and visualized by chemiluminescence according to the manufacturer's instructions (Pierce).

[3] = tested on: STAT3 serine 727 phosphorylation; assay: Western blot of STAT3 serine 727 phosphorylation in activated RBL cells; type: cell-based, rat
Procedure: RBL cells were washed once in cold PBS prior to homogenization. 9×10^6 cells were homogenized in buffer A (320 mm sucrose, 5 mm Tris, 2 mm EGTA, pH 7.4) with 10 strokes of a Teflon Dounce homogenizer. The procedure was performed at 4° C. The homogenate was centrifuged for 3 min at 2000 g and the supernatant kept. This was repeated twice, and the supernatants combined then centrifuged for 3 min at 2000 g. to remove the nuclei and cell debris. The supernatant was transferred to a clean tube and centrifuged for 10 min at 12,000 g to pellet mitochondria, washed twice resuspended in a small volume of buffer A and stored at −70° C. In order to prepare mitoplasts, the mitochondrial pellet was resuspended in buffer A with the addition of 0.02% (w/v) digitonin. The pellet was resuspended and washed twice in large volumes of digitonin-free buffer A. […] Cells and mitochondria were vortexed and incubated on ice for 15 min. The lysates were then centrifuged at 14,000 g for 15 min and pellets were discarded. The protein concentration of each sample was determined using Bradford Reagent (Sigma-Aldrich). Proteins were resolved by 10-15% SDS-PAGE under reducing conditions and transferred to polyvinylidene difluoride membranes (Millipore Billerica, Ma). […] The membranes were washed three times with TBST for 5 mM before and after each incubation with secondary Ab. The proteins were detected with the appropriate secondary Ab (1 h; room temperature) coupled to HRP-conjugated goat anti-rabbit or anti-mouse Ab and visualized by chemiluminescence according to the manufacturer's instructions (Pierce).

RBL cells [4] = assay: ATP determination (ATPLite luminescence) in RBL cells; type: cell-based, rat; conditions: for ATP levels: RBL cells
Procedure: as §1
ATP levels were measured using the ATPLite luminescence-based assay according to the manufacturer's instructions (Perkin Elmer, Waltham, Mass., USA).

RBL cells [5] = assay: Oxygen consumption (Seahorse XF analyzer) in RBL cells; type: cell-based, rat; conditions: for decrease in oxygen consumption: 40 μM U0126; for oxygen consumption: RBL cells, 3 h
Procedure: as §1
Oxygen consumption rate (OCR) was measured using an XF24 extracellular flux analyzer (Seahorse Biosciences, North Billeric, Mass., USA).

plasma histamine = assay: In vivo histamine release assay, passive systemic IgE-mediated anaphylaxis model; conditions: Mitocur-1 80 mg/kg i.p., 3.5 h before DNP-BSA challenge
Procedure: C3H 6-7 week male and female WT mice were purchased from Jackson Lab (Cambridge, Mass., USA), mice were fed a regular diet and with drinking water ad libitum. Experiments were approved by The Hebrew University Ethical Committee for Animal Experimentation.
WT C3H mice were sensitized with 3 μg murine IgE anti-DNP mAb SPE-7 by means of intravenous injection in the tail vein. Twenty-four hours later, mice were treated with 40 mg/kg of static dissolved in corn oil or corn oil alone for 2.5 hours, then mice were challenged with i.v. injection of DNP-BSA (250 μg per mouse). 100 μl of blood was collected immediately and added to an equal volume of pre-cold Alsever's Solution. Blood was centrifuged 2000 g for […] and plasma supernatant was collected. Plasma histamine levels were determined by using competitive ELISA (IBL International Gmbh, Hamburg, Germany).
STAT3's role in vivo was investigated by evaluating the response to allergic stimulation in Stattic-treated mice. The passive systemic IgE-mediated anaphylaxis model was used. Mice were injected (i.v.) with IgE anti-DNP. Twenty four hours later they were injected (i.p.) with Stattic (80 mg/kg) or corn oil which was used as control. Three and a half hours later the mice were challenged with DNP-BSA for 1.5 minutes. Plasma was collected, and histamine levels were measured by competitive ELISA. Histamine secretion in Stattic-treated mice was 43% less than that in control mice (FIG. 17, p<0.05).
Mitocur-1/3 effectiveness in vivo was investigated by evaluating the response to allergic stimulation in Mitocur-1/3-treated mice. The passive systemic IgE-mediated anaphylaxis model was used. Mice were injected (i.v.) with IgE anti-DNP. Twenty four hours later they were injected (i.p.) with Mitocur-1 (80 mg/kg) and Mitocur-3 (40 mg/kg). Corn oil was used as control. Three and a half hours later the mice were challenged with DNP-BSA for 1.5 minutes. Plasma was collected, and histamine levels were measured by competitive ELISA. Histamine secretion in Mitocur-1-treated mice was 35% less than that in control mice (FIG. 22A, p<0.05).

RBL cells [6] = assay: TNF-α secretion of activated RBL cells; type: cell-based, rat; conditions: activated RBL cells (FIG. 19G)
c-myc = assay: Western blot of c-myc (STAT3 target gene) in RBL cells; type: cell-based, rat; conditions: 3 h
Procedure: as §3
The levels of cleaved caspase3 were measured as an indicator of apoptosis, which could occur as a result of inhibiting STAT3's target genes. […] Since higher concentrations reduced the levels of c-myc and enhanced the levels of cleaved caspase3, the inventors concluded that 6 μM Mitocur-1/3 or lower would be suitable for the present invention. As these molecules are intended to be used in a time frame greater than 3 h, RBL cells were incubated with the same concentrations of Mitocur-1/3 for 24 h and the levels of cleaved caspase3 were determined by Western blot analysis.

caspase3 [7] = assay: Western blot of cleaved caspase3 in BMMC; type: cell-based, mouse; conditions: 6 μM (FIG. 21D)
BMMC [8] = assay: β-Hexosaminidase release assay (degranulation) in BMMC; type: cell-based, mouse; conditions: activated BMMC, 6 μM
Procedure: as §1, §2

BMMC [9] = assay: Measurements of secreted mediators (ELISA) in activated BMMC; type: cell-based, mouse
Procedure: 1×106 BMMC were immunologically activated as described above. After IgE incubation, the cells were washed three times in PBS and incubated with DNP-albumin (Sigma-Aldrich) for 30 mM in complete growth medium. Supernatant was collected and Granzyme B and TNFα content were measured using ELISA Kits (eBioscience).

[10] = target: signal transducer and activator of transcription factor 3 (STAT3), mitochondrial, endogenous in RBL cells (rat (RBL cells)) (UniProt P52631); assay: cell-based or functional assay
[11] = immunologically activated BMMC, 6 μM (FIG. 21C)
[12] = RBL cells transfected with PIAS3-mito vs empty plasmid

Sequence of UniProt P52631 (P52631 2-770 limits assumed): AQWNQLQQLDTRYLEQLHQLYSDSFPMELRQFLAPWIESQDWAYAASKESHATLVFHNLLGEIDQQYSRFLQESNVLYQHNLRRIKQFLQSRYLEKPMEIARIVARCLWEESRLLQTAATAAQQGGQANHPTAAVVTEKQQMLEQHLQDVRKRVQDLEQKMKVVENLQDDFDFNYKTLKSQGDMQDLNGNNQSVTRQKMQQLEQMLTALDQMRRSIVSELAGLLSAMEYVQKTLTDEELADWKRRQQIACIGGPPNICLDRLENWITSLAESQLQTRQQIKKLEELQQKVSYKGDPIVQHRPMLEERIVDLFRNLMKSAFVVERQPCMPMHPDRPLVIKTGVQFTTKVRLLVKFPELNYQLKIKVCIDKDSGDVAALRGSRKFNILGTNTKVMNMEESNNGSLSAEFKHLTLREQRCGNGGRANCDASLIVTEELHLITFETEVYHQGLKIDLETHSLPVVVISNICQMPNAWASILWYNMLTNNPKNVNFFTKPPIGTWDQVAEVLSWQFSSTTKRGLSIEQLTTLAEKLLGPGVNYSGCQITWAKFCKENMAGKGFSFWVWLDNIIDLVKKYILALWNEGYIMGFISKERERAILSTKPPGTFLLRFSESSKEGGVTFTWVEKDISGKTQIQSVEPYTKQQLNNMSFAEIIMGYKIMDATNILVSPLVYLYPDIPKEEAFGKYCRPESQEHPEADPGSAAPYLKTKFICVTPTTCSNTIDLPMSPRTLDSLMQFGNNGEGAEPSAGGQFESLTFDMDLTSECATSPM

Molecule: COc1ccc(S(=O)(=O)Nc2cc(-c3c(O)ccc4ccccc34)c(O)c3ccccc23)cc1 [Mitocur C188-9, N-(1′,2-Dihydroxy-1,2′-binaphthalen-4′-yl)-4-methoxybenzenesulfonamide]
degranulation (RBL cells [1]; immunologically activated RBL cells, 250 μM C188-9, 10 min): abolished

Molecule: N#CC(=C(/N)Sc1ccccc1N)/C(C#N)=C(\N)Sc1ccccc1N [Mitocur U0126, reference compound]
caspase3 levels (apoptosis) (caspase3 [2]; activated RBL cells, 40 μM U0126): no change | STAT3 727 serine phosphorylation, total cell level ([3]; RBL cells, 40 μM U0126, activated 5 min): significant decrease | STAT3 727 serine phosphorylation, mitochondrial level ([3]; activated RBL cells fractionated into cytosol and mitochondria, 40 μM U0126): decrease | decrease in ATP levels (RBL cells [4]; immunologically activated RBL cells, 20 min pre-treatment with 40 μM U0126): 3.0±0.4% | reduction in degranulation as compared to control (RBL cells [1]; IgE-Ag stimulated RBL cells, 40 μM U0126, 20 min): 33.0±0.6% | degranulation levels at higher concentrations (RBL cells [1]; RBL cells, U0126 above 40 μM (FIG. 12)): more profound reduction | decrease in oxygen consumption (RBL cells [5]; activated RBL cells): 15.8±4.9% | decrease in oxygen consumption (RBL cells [5]; quiescent RBL cells): 9.4±2.4%

cleaved caspase3 levels (caspase3 [7]): no change | melting point: 130 to 140 °C | degranulation levels (BMMC [8]; 3 h incubation): reduced | degranulation levels (BMMC [8]; 24 h incubation): reduced
Molecule: COc1cc(/C=C/C(=O)CC(=O)/C=C/c2ccc(OCCC[P+](c3ccccc3)(c3ccccc3)c3ccccc3)c(OC)c2)ccc1OCCC[P+](c1ccccc1)(c1ccccc1)c1ccccc1 [Mitocur-1, 1,7-Bis{3-methoxy-4-[3-(triphenylphosphonium)propoxy]-phenyl}hepta-1,6-diene-3,5-dione dichloride]
cleaved caspase levels (caspase3 [2]; RBL cells, 6 μM, 3 h): no change | cleaved caspase3 levels (caspase3 [2]; RBL cells, concentrations higher than 6 μM, 3 h): enhanced | histamine secretion less than in control mice (plasma histamine): 35% | ATP levels (RBL cells [4]; 100 μM, 3 h (data not shown)): reduced | ATP levels (RBL cells [4]; 6-50 μM, 3 h): No significant reduction | TNF-α secretion (RBL cells [6]): completely abolished | c-myc levels compared to control (c-myc; 6 μM): no change | c-myc levels (c-myc; concentrations higher than 6 μM): reduced | Emax at 6 µM (RBL cells [1]; Rattus norvegicus, RBL cells, 6 μM, 3 h incubation, read-out: maximum effect, reduction of degranulation): > 50% | oxygen consumption (RBL cells [5]; 100 μM): reduced | oxygen consumption (RBL cells [5]; 6-50 μM): No significant reduction | Granzyme-B secretion (BMMC [9]; BMMC (data not shown)): abolished | cytokine secretion: IL-6 (BMMC [9]; [11]): totally abolished | cytokine secretion: TNF-α (BMMC [9]; [11]): totally abolished

ATP levels of activated cells compared to control (empty plasmid) [10]: 15.9 % decrease | degranulation (β-hexosaminidase release) [10]: 67.5%
Molecule: PIAS3 fused to a mitochondrial target sequence (PIAS3-mito) (from UniProt O54714 13-628)

B1: PIAS3-mito: PIAS3 fused to a mitochondrial target sequence, expressed from a transfected plasmid (SEQ ID NO. 16) (protein)
chain: MSVLTPLLLRGLTGSARRLPVPRAKIHSLLQVDSFRVSELQVLLGFAGRNKSGRKHELLAKALHLLKSSCAPSVQMKIKELYRRRFPRKTLGPSDLSLLSLPPGTSPPVHPDVTMKPLPFYEVYGELIRPTTLASTSSQRFEEAHFTFALTPQQLQQILTSREVLPGAKCDYTIQVQLRFCLCETSCPQEDYFPPNLFVKVNGKLCPLPGYLPPTKNGAEPKRPSRPINITPLARLSATVPNTIVVNWSSEFGRNYSLSVYLVRQLTAGTLLQKLRAKGIRNPDHSRALIKEKLTADPDSEVATTSLRVSLMCPLGKMRLTVPCRALTCAHLQSFDAALYLQMNEKKPTWTCPVCDKKAPYESLIIDGLFMEILNSCSDCDEIQFMEDGSWCPMKPKKEASEVCPPPGYGLDGLQYSAVQEGIQPESKKRVEVIDLTIESSSDEEDLPPTKKHCPVTSAAIPALPGSKGALTSGHQPSSVLRSPAMGTLGSDFLSSLPLHEYPPAFPLGADIQGLDLFSFLQTESQHYGPSVITSLDEQDTLGHFFQYRGTPSHFLGPLAPTLGSSHRSSTPAPPPGRVSSIVAPGSSLREGHGGPLPSGPSLTGCRSDVISLD
decrease in ATP levels of activated cells compared to control (RBL cells [4]; RBL cells transfected with PIAS3-mito vs empty plasmid, activated 5 min): 15.9±1.6% | decrease in degranulation (RBL cells [1]; [12]): 67.5±15.0% | oxygen consumption in activated cells compared to activated control cells (RBL cells [5]; [12]): did not change
